Drawing on publication PMC3432467 (2012), this text covers Kd for one compound.

In the assay the target is flavodoxin II (apoflavodoxin) (Azotobacter vinelandii, UniProt P00324, C70A). Kind of assay: FMN fluorescence increase on dilution of holoprotein. The assay is classed as binding.

Usually Kd stands for a measure of binding affinity in units of concentration. A high value points to weaker binding.

Chain of flavodoxin II (apoflavodoxin) (P00324 2-180 C70A): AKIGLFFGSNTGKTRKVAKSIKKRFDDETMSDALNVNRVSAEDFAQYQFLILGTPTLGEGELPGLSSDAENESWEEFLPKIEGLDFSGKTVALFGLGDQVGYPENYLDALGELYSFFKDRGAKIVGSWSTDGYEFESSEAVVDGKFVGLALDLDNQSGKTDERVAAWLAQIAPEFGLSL

`Cc1cc2nc3c(=O)[nH]c(=O)nc-3n(C[C@H](O)[C@H](O)[C@H](O)COP(=O)(O)O)c2cc1C` [flavin mononucleotide] returned a dissociation constant (Kd) of 3.82 pM.
